{"source": "the NIST ThermoML archive (doi:10.1016/j.jct.2012.02.005)", "key": {"[1]": {"conditions": "Crystal; DTA"}, "[2]": {"assay": "Molar enthalpy of transition or fusion", "conditions": "Crystal; DSC"}}, "note": "Numbers after ± are expanded uncertainties."}
{"smiles": "c1ccc2nsnc2c1", "note": "[2,1,3-benzothiadiazole]", "values": [{"measurement": "Triple point temperature", "setting": "[1]", "result": "316.96 ± 0.39", "unit": "K"}, {"measurement": "Molar enthalpy of transition or fusion", "setting": "[2]", "result": "16.3 ± 0.39", "unit": "kJ/mol"}]}
